{"source": "patent US9700539B2", "about": "“Therapeutic application of (Boc)2-creatine” (UNIVERSITA' DEGLI STUDI DI GENOVA, priority 2013, dated 2017)", "key": {"[1]": {"test_system": "tumor cell lines that express a high level of creatine kinase", "conditions": "literature; cited from earlier work"}, "[2]": {"test_system": "creatine kinase enzyme", "conditions": "literature; cited from earlier work"}, "[3]": {"test_system": "slices of mouse hippocampus", "assay": "Incubation of mouse hippocampus slices with (Boc)2-creatine", "assay_type": "cell-based", "conditions": "2 mM, 3 hours at 36° C.", "text": "Of course, high concentrations of (Boc)2-creatine will have a cytotoxic effect. […] Since tumor development is due to an uncontrolled cellular progression, a molecule which can control the main source of cell energy gives a valid means of controlling cell proliferation."}, "[4]": {"test_system": "creatine kinase enzyme", "assay": "Creatine kinase activity by the coupled enzymatic method (pyruvate kinase/lactate dehydrogenase, NADH at 340 nm)", "assay_type": "biochemical", "conditions": "2 mM creatine", "description": "The activity of the creatine kinase enzyme was measured by the enzymatic coupling method (Bergmeyer 1974). In this method, the ATP hydrolysis is coupled with the NADH oxidation, which is monitored, by means of a spectrophotometer, by the decrease in absorbance at 340 nm (ε340=6.22 mM^−1 cm^−1).\nThe dosage of the creatine kinase was carried out with the spectrophotometer at 340 nm, following the oxidation of the pyridine coenzyme NADH, which is expressed as a decrease in the absorbance. To be able to carry out the dosage, the reaction of the creatine kinase was combined with two other enzymatic reactions catalyzed respectively by the pyruvate kinase and by the lactate dehydrogenase (Bergmeyer 1974). This method, defined as the coupled method, is necessary because both the substrata and the products of the creatine kinase are not directly visible to the spectrophotometer. In particular, the dosage solution contained the following compounds: 100 mM Tris HCl, pH 7.5, 2 mM MgCl2, 75 mM KCl, 2 mM ATP, 0.5 mM phosphoenolpyruvate, 0.16 mM NADH, 10 IU of pyruvate kinase and of lactate dehydrogenase, in a final volume of 1 ml. The reaction begins by the addition of 2 mM of creatine. The dosage is carried out continuously, i.e. the enzyme activity is followed in real time during the development of the reaction. The dosage trend is monitored by a register connected to the spectrophotometer. The reactions take place in the cuvette, as illustrated in FIG. 1.\nTo verify the inhibiting effect of (Boc)2-creatine, concentrations between 0.25 and 2 mM were added to the dosage solution, before the addition of the creatine.\nTo identify the type of inhibition, the maximum kinetic speed (Vmax) and the Michaelis Menten constant (Km) were measured. To be able to carry out the experiment, for each concentration of (Boc)2-creatine, the dosage was carried out in the presence of different substratum concentrations (creatine). The data were analyzed with the Lineweaver-Burk double-reciprocal plot."}}}
{"smiles": "N=C1NCCN1CC(=O)O", "note": "[cyclocreatine, 1-carboxymethyl-2-iminoimidazolidine]", "values": [{"measurement": "inhibition of tumor cell lines", "setting": "[1]", "result": "suitable for inhibiting tumor cell lines that express a high level of creatine kinase"}]}
{"smiles": "NC(=O)CI", "note": "[Iodoacetamide]", "values": [{"measurement": "type of inhibition of creatine kinase", "setting": "[2]", "result": "complete and irreversible inhibition"}]}
{"smiles": "CN(CC(=O)O)C(=NC(=O)OC(C)(C)C)NC(=O)OC(C)(C)C", "note": "[(Boc)2-creatine]", "values": [{"measurement": "cytotoxic effect on hippocampus slices (vital signs)", "setting": "[3]", "result": "show no vital signs"}, {"measurement": "inhibition of the creatine kinase", "setting": "[4]; 0.25 mM (Boc)2-creatine", "result": 21, "unit": "%"}, {"measurement": "inhibition of the creatine kinase", "setting": "[4]; 0.5 mM (Boc)2-creatine", "result": 39, "unit": "%"}, {"measurement": "inhibition of the creatine kinase", "setting": "[4]; 0.75 mM (Boc)2-creatine", "result": 75, "unit": "%"}, {"measurement": "maximum inhibition of the creatine kinase", "setting": "[4]; 1 mM (Boc)2-creatine", "result": 95, "unit": "%"}]}
{"smiles": "CCCCCC(CCCC)=C([Te]c1ccccc1)C(=O)c1ccccc1", "note": "[3-butyl-1-phenyl-2-(phenyltelluro)oct-en-1-one]", "values": [{"measurement": "type of inhibition of creatine kinase", "setting": "[2]", "result": "competitive inhibitor"}]}
